Test results: patent US4749703A, “Calcium antagonist piperazine derivatives, and compositions therefor” (Dainippon Pharmaceutical Co., Ltd., priority 1984, dated 1988)

How the values were obtained:
[1] = system: methacholine-induced ST elevation; experiment: Preventive effect on methacholine-induced ST elevation (experimental model of variant angina); format: in vivo, Male SD strain rats; details: i.v.; for ST elevation, administn. of M (8 μg) after administn. of test compd. (at peak time): ± S.E.; for preventive effect on the ST elevation (in words): compared with diltiazem hydrochloride
Description: (2) Preventive effect on methacholine-induced ST elevation (effect in experimental model of variant angina)
The test was carried out according to the method of Sakai et al. [cf. J. Pharmacol. Methods, 5, 325-336 (1981)].
Male SD strain rats, weighing about 500 g, were anesthetized with 60 mg/kg (i.p.) of sodium pentobarbital. Lead II electrocardiogram was recorded. The ST elevation was produced with 8.0 μg of metacholine given into the coronary […] through the cannula inserted from the right carotid artery. The test compound, dissolved in 5% ethanol-physiological saline solution, was administered intravenously. The amplitude of ST elevation was measured by means of the computer 0.5, 5 and 10 minutes after the administration of the test compound and afterward at intervals of 10-minute. The effect of the test compound was evaluated by comparing the amplitude of ST elevation after administration of the test compound with that before the administration. Each group of 5 rats was used for each dose of the test compound.
The abbreviation M in the table represents metacholine.

[2] = in vivo; details: mouse, mortality for 7 days
Text: STD-ddY strain mice were used in groups of 10 animals each.

[3] = system: vasopressin-induced ST depression; experiment: Preventive effect on vasopressin-induced ST depression (experimental model of angina pectoris); format: in vivo, Male Donryu strain rats; design: key to Preventive effect on ST depression, 7 hours / Preventive effect on ST depression, 1 hour / Preventive effect on ST depression, 5 hours / Preventive effect on ST depression, 3 hours: +: Significantly different from vehicle control (P < 0.05); -: No significant difference; details: for Preventive effect on ST depression, 1 hour: 1 hour following administration; for Preventive effect on ST depression, 3 hours: 3 hours following administration; for Preventive effect on ST depression, 5 hours: 5 hours following administration; for Preventive effect on ST depression, 7 hours: 7 hours following administration; for preventive effect on the ST depression (in words): p.o., compared with diltiazem hydrochloride
Description: (1) Preventive effect on vasopressin-induced ST depression (effect in experimental model of angina pectoris)
The test was carried out according to the method of Hatano et al. [cf. Pharmacometrics, 19, 311-317 (1980)].
Male Donryu strain rats, weighing 130-180 g, were anesthetized with 60 mg/kg (i.p.) of sodium pentobarbital. Lead II electrocardiogram was recorded. The ST depression produced with 0.2 IU/kg (i.v.) of vasopressin was recorded at intervals of a given period for 5 minutes after the administration of vasopressin. The test compound, suspended in 0.5% aqueous tragacanth solution, was administered orally 1, 3, 5 and 7 hours before the administration of vasopressin. The amplitude of ST depression was measured by means of the computer, and the data were analyzed statistically by two-dimensional analysis between the control group and the treated group to evaluate the effect of the test compound. Each group of 5 rats was used for each dose of the test compound.

[4] = system: spontaneously hypertensive rats (SHR); experiment: Antihypertensive activity in spontaneously hypertensive rats (SHR); format: in vivo, male SHR (Okamoto and Aoki strain) rats; details: 30 mg/kg
Description: The animals used were male SHR [Okamoto and Aoki strain; cf. Jap. Circul. […] Proc. Soc. […] The other end of the cannula was exposed through the skin on the back of the neck and fixed. After 1 to 4 days, the aortic cannula was connected to a pressure transducer (produced by Nihon Koden Co., Ltd., Japan; Model MP-4T), and conscious blood pressure was measured by direct method. On the day of the experiment, the blood pressure was measured for one hour prior to dosing. The test compound, suspended in 0.5% aqueous tragacanth solution, was administered orally at a volume of 3.0 ml/kg and the blood pressure was measured continuously for 5 hours.
The changes of blood pressure are expressed by the mean pressure calculated from the values of systolic and diastolic pressure.

[5] = 0.3 mg/kg, * P < 0.05, ** P < 0.01
[6] = ip, single intraperitoneal administration

SMILES	peak time (preventive effect on ST elevation) ([1]; 0.1 mg/kg)	ST elevation, administn. of M (8 μg) after administn. of test compd. (at peak time) ([1]; 0.1 mg/kg, * P < 0.05)	peak time (preventive effect on ST elevation) ([1]; 0.3 mg/kg)	ST elevation, administn. of M (8 μg) after administn. of test compd. (at peak time) [1, 5]	peak time (preventive effect on ST elevation) ([1]; 1.0 mg/kg)	ST elevation, administn. of M (8 μg) after administn. of test compd. (at peak time) ([1]; 1.0 mg/kg, ** P < 0.01)	preventive effect on the ST elevation (in words) [1]	LD50 at 168 h [2, 6]	LD50 at 168 h ([2]; single oral administration)	Preventive effect on ST depression, 1 hour ([3]; 3 mg/kg p.o.)	Preventive effect on ST depression, 3 hours ([3]; 3 mg/kg p.o.)	Preventive effect on ST depression, 5 hours ([3]; 3 mg/kg p.o.)	Preventive effect on ST depression, 1 hour ([3]; 10 mg/kg p.o.)	Preventive effect on ST depression, 5 hours ([3]; 10 mg/kg p.o.)	Preventive effect on ST depression, 7 hours ([3]; 10 mg/kg p.o.)	Preventive effect on ST depression, 7 hours ([3]; 30 mg/kg p.o.)	preventive effect on the ST depression (in words) [3]	Peak time (time of maximum hypotensive effect) ([4]; p.o.)	maximum hypotensive effect (decrease compared with the initial blood pressure) ([4]; oral)	time of maximum hypotensive effect ([4]; oral)
O=C(CCCN1CCN(c2ccc(F)cc2)CC1)NC1c2ccccc2C=Cc2ccccc21 [79(3), 5-[4-[4-(4-fluorophenyl)-1-piperazinyl]butyrylamino]-5H-dibenzo[a,d]cycloheptene]	5 min	+0.12 ± 0.02 ΔmV	0.5 min	+0.04 ± 0.02 ΔmV	0.5 min	+0.08 ± 0.01 ΔmV	preventive effect on the ST elevation comparable to that of diltiazem hydrochloride	> 1000 mg/kg	> 4000 mg/kg	+	+	-	+	+	-	+	more prolonged preventive effect on the ST depression than diltiazem hydrochloride			
O=C(CCCN1CCN(c2ccc(F)cc2)CC1)NC1c2ccccc2CSc2ccccc21 (stereo not drawn) [Example 1(3), 11-[4-[4-(4-fluorophenyl)-1-piperazinyl]butyrylamino]-6,11-dihydrodibenzo[b,e]thiepin]	0.5 min	+0.14 ± 0.02 ΔmV	5 min	+0.09 ± 0.02 ΔmV	0.5 min	+0.09 ± 0.01 ΔmV	preventive effect on the ST elevation comparable to that of diltiazem hydrochloride	> 1000 mg/kg	> 4000 mg/kg	+	-		+	+	-	+	more prolonged preventive effect on the ST depression than diltiazem hydrochloride	5 h	12-14%	4 to 5 h
